In data set [1] the test system is Transient middle cerebral artery occlusion (tMCAO). The data set is described as follows: Body swing test after tMCAO stroke. In kind it is in vivo, rats. The conditions noted are these: for body swing performance vs vehicle: by Day 28. Here is the method: For the purposes of this example, Transient middle cerebral artery occlusion (tMCAO) procedure Day is defined as “Day 1” in this study. On the day of surgery anesthesia were induced with 4% isoflurane in a mixture of 70% N2O and 30% O2 and maintained with 1.5-2% isoflurane.
The tMCAO procedures were performed according to the method described R. Schmid-Elsaesser et al. Briefly, the right CCA (Common Carotid Artery) was exposed through a midline neck incision and carefully dissected free from surrounding nerves and fascia—from its bifurcation to the base of the skull. The occipital artery branches of the ECA (External Carotid Artery) were then isolated, and these branches were dissected and coagulated. The ECA was dissected further distally and coagulated along with the terminal lingual and maxillary artery branches, which was then divided. The ICA (Internal Carotid Artery) was isolated and carefully separated from the adjacent vagus nerve, and the pterygopalatine artery was ligated close to its origin with a 5-0 nylon suture (SMI, Belgium). Next, a 4-0 silk suture was tied loosely around the mobilized ECA stump, and a 4 cm length of 4-0 monofilament nylon suture (the tip of the suture was blunted by using a flame, and the suture was coated with polylysine, prior to insertion) was inserted through the proximal ECA into the ICA and thence into the circle of Willis, effectively occluding the MCA. The surgical wound was closed and the animals were returned to their cages to recover from anesthesia. One hour and a half after occlusion rats were re-anesthetized, the monofilament was withdrawn to allow reperfusion, the surgical wound was closed and rats were returned to their cages.
Animals were subjected to a modified Modified Neurological Rating Scale (mNRS) at 24 hours post reperfusion. Only animals with an overall score of ≧10 were included in this study. Animals were allocated into the test groups, according to the mNRS results on day 2, in order to have similar distribution of rats performance between groups. Starting on day 2, 24 hours post-surgery, animals in groups 4, 5 and 7 were implanted subcutaneously with an osmotic Alzet pump and treated with either 500 μg/kg TXA127, 500 μg/kg PanCyte, or 50 μg/kg Linear PanCyte. Animals in groups 2, 3 and 6 received 500 μg/kg or 1,000 μg/kg TXA127 or 500 μg/kg PanCyte, administered subcutaneously via daily injection. Animals in group 1 were treated with a daily subcutaneous injection of a PBS (vehicle).
Each rat was held approximately one inch from the base of its tail. It was then elevated to an inch above a surface of a table. The rat was held in the vertical axis, defined as no more than 10° to either the left or the right side. A swing was recorded whenever the rat moves its head out of the vertical axis to either side. Before attempting another swing, the rat must return to the vertical position for the next swing to be counted. Twenty (20) total swings were counted. A normal rat typically has an equal number of swings to either side. Following focal ischemia, the rat tends to swing to the contralateral side (left side in this case). Body swing scores are expressed as a percentage of […] over total swings.

Data set [2] in a line: Body weight of mice in hind limb ischemia studies. It is filed as in vivo, Balb/c mice. Conditions: throughout the study. Here is the method: Body weight of animals was measured before the surgery and once weekly thereafter.
The model and procedures used for this example is the same as for those in Examples 1 and 2, unless otherwise specified.

For data set [3], the system named is hind limb ischemia. Kind of data set: Semi-quantitative assessment of limb function in mouse hind limb ischemia model. In kind it is in vivo, Balb/c mice. From the text: A stable hind limb ischemia model has been described previously and is generally characterized by uniform ischemic damage useful for examining the effect of various therapies (Goto, et al. Tokai J Exp Clin Med, 31(3):128 2006; Kang Y, et al. PLoS One. 2009; 4(1):e4275)). The hind limb ischemia model in mice used in this example involves two ligations of the proximal end of the femoral artery and its dissection between the two ligatures. The surgery causes obstruction of the blood flow and subsequently leads to severe ischemic damage (Goto, et al.; Kang, et al.). In this experiment, healthy adult female Balb/c mice were used. Hind limb ischemia was induced in mice using protocols previously described. Briefly, Balb/c female mice were maintained on a standard diet with water available ad libitum. Mice were anesthetized and an incision was made in the skin in the inguinal area. The femoral artery was ligated twice with 6-0 silk thread and transected between the ligatures after this the wound was closed with 4-0 silk thread and the mouse was allowed to recover.
An Angiotensin (1-7) polypeptide composition (TXA127) and vehicle control (DPBS) were supplied as ready to use solutions and were stored at 4° C. until use. TXA127 was injected subcutaneously (500 μg/kg) daily starting on day 1, 24 hours after inducing ischemia, until the end of the study. […]
Semi-quantitative assessment of impaired use of the ischemic limb was performed once a week post-surgery using the scale shown in Table 6 (Stabile et al, Circulation 108(2):205 2003). […]
An Angiotensin (1-7) polypeptide composition (PanCyte) and vehicle control (DPBS) were supplied as ready to use solutions and were stored at 4° C. until use. […]
Semi-quantitative assessment of impaired use of the ischemic limb was performed once a week post-surgery using the scale shown in Table 6 above. […]
An Angiotensin (1-7) polypeptide composition (PanCyte, cyclized Asp^1-Arg^2-Val^3-Ser^4-Ile^5-His^6-Cys (SEQ ID NO:22)) and vehicle control (DPBS) were supplied as ready to use solutions and were stored at 4° C. until use. […]

Positions of bridges follow the written chain, without caps; N, C: chain ends. No end group written: not given here.

Consider “cyclized Asp^1-Arg^2-Val^3-Ser^4-Ile^5-His^6-Cys (SEQ ID NO:22) (DRVSIHC; bridge 4-7; not fully specified; printed as Asp1-Arg2-Val3-Ser4-Ile5-His6-Cys7) [PanCyte, cyclic angiotensin peptide]”, for which the “body swing performance vs vehicle” value in data set [1] (500 μg/kg SC daily) and in data set [1] (500 μg/kg by Alzet pump) was “significant improvement in performance” each time. In addition, in data set [1] (500 μg/kg by Alzet pump, by Day 21), the body swing performance entry is reported as “showed improvement”. Besides, the “body weight vs vehicle” value was “no statistically significant differences” in data set [2] (Example 2, 500 or 50 μg/kg SC daily) and “no statistically significant differences” in data set [2] (Example 3, 1-50 μg/kg SC). Moreover, the “limb function vs control” value in data set [3] (Example 2, 500 μg/kg SC daily (2F), day 28) is “improvement in limb function”; in data set [3] (Example 3, 1 μg/kg SC daily (2F), days 14 and 21), “improvement in limb function”; in data set [3] (Example 3, 50 μg/kg continuous infusion by Alzet pump (6F), days 14 and 21) it was “improvement in limb function”.

Source of the values: US20130237478A1, “COMPOSITIONS AND METHODS FOR TREATMENT OF PERIPHERAL VASCULAR DISEASE” (TARIX PHARMACEUTICALS LTD., priority 2012, published 2013).
